Compound: Cc1ccc2nc(NCCN)c3ncc(C)n3c2c1 + CC(=O)Nc1cccc(-n2c(=O)n(C3CC3)c(=O)c3c(Nc4ccc(I)cc4F)n(C)c(=O)c(C)c32)c1 [Trametinib] (partner 0.02 µM)
Assay: relative viability (nuclei count vs DMSO), 5 days (fraction); higher = more cells survive
Conditions: first compound 0.04 µM
How it was run: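 Dosing by pin tool came one day after lung cancer cell lines were seeded in 1536-well plates, using either one drug or a fixed anchor-drug dose plus five library-drug doses (not always all listed) in √10 steps. After 5 days, nuclei were counted on 4× images. Relative viability is treated-well nuclei count divided by vehicle-well nuclei count, and values are medians of duplicate plates.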

Cell Line	relative viability
NCI-H2342	0.822
NCI-H727	0.453
NCI-H1650	0.57
NCI-H1993	0.421
SW 1573	0.584
NCI-H838	0.561
LCLC-103H	0.727
NCI-H520	0.75
NCI-H2126	0.547
EMC-BAC-2	0.927
NCI-H2085	1.03
HCC-366	0.385
NCI-H1666	0.907
NCI-H596	0.834
LK-2	0.921
NCI-H2087	0.18

Cell Line	relative viability
NCI-H358	0.133
NCI-H2170	0.892
H3255	0.562
COR-L23	0.581
COR-L 105	0.423
LOU-NH91	0.819
ChaGo-K-1	0.884
NCI-H1793	0.371
NCI-H2405	0.648
SK-MES-1	0.545
NCI-H1395	0.977
CAL-12T	0.352
NCI-H2228	0.549
NCI-H1648	0.434
NCI-H1944	0.432

Same assay, conditions: first compound 0.1265 µM

Cell Line	relative viability
NCI-H522	0.753
NCI-H2342	0.805
NCI-H1650	0.499
NCI-H1993	0.632
SW 1573	0.6
NCI-H838	0.507
LCLC-103H	0.677
NCI-H520	0.658
NCI-H2126	0.563
EMC-BAC-2	0.927
NCI-H2085	0.63
HCC-366	0.395
NCI-H1666	0.796
NCI-H596	0.732
LK-2	0.576
NCI-H2087	0.208

Cell Line	relative viability
NCI-H358	0.153
NCI-H2170	0.915
H3255	0.554
COR-L23	0.564
COR-L 105	0.506
LOU-NH91	0.792
ChaGo-K-1	0.924
NCI-H1793	0.363
NCI-H2405	0.629
SK-MES-1	0.556
SW 900	0.901
NCI-H1395	0.983
CAL-12T	0.323
NCI-H2228	0.501
NCI-H1648	0.433
NCI-H1944	0.476

Same assay, conditions: first compound 0.4 µM

Cell Line	relative viability
NCI-H522	0.791
NCI-H2342	0.821
NCI-H727	0.398
NCI-H1650	0.739
NCI-H1993	0.64
SW 1573	0.602
NCI-H838	0.45
LCLC-103H	0.65
NCI-H520	0.753
NCI-H2126	0.522
EMC-BAC-2	0.873
NCI-H2085	0.502
HCC-366	0.369
NCI-H1666	0.773
NCI-H596	0.806
LK-2	0.682
NCI-H2087	0.194

Cell Line	relative viability
NCI-H358	0.13
NCI-H2170	0.871
H3255	0.564
COR-L23	0.624
COR-L 105	0.478
LOU-NH91	0.794
ChaGo-K-1	0.904
NCI-H1793	0.525
NCI-H2405	0.674
SK-MES-1	0.539
SW 900	0.827
NCI-H1395	0.989
CAL-12T	0.361
NCI-H2228	0.522
NCI-H1648	0.434
NCI-H1944	0.401

Same assay, conditions: first compound 1.265 µM

Cell Line	relative viability
NCI-H522	0.719
NCI-H2342	0.917
NCI-H727	0.383
NCI-H1650	0.494
NCI-H1993	0.34
SW 1573	0.612
NCI-H838	0.507
LCLC-103H	0.66
NCI-H520	0.677
NCI-H2126	0.607
EMC-BAC-2	0.954
NCI-H2085	0.491
HCC-366	0.336
NCI-H1666	0.863
NCI-H596	0.74
LK-2	0.617
NCI-H2087	0.16

Cell Line	relative viability
NCI-H358	0.137
NCI-H2170	0.83
H3255	0.523
COR-L23	0.648
COR-L 105	0.407
LOU-NH91	0.787
ChaGo-K-1	0.849
NCI-H1793	0.363
NCI-H2405	0.589
SK-MES-1	0.594
SW 900	0.749
NCI-H1395	0.828
CAL-12T	0.357
NCI-H2228	0.519
NCI-H1648	0.419
NCI-H1944	0.381

Same assay, conditions: first compound 4 µM

Cell Line	relative viability
NCI-H522	0.684
NCI-H2342	0.849
NCI-H727	0.435
NCI-H1650	0.427
NCI-H1993	0.46
SW 1573	0.306
NCI-H838	0.612
LCLC-103H	0.67
NCI-H520	0.621
NCI-H2126	0.552
EMC-BAC-2	0.7
NCI-H2085	0.499
HCC-366	0.284
NCI-H1666	0.8
NCI-H596	0.763
LK-2	0.672
NCI-H2087	0.204

Cell Line	relative viability
NCI-H358	0.129
NCI-H2170	0.921
H3255	0.575
COR-L23	0.506
COR-L 105	0.414
LOU-NH91	0.775
ChaGo-K-1	0.77
NCI-H1793	0.4
NCI-H2405	0.581
SK-MES-1	0.573
SW 900	0.621
NCI-H1395	0.878
CAL-12T	0.271
NCI-H2228	0.424
NCI-H1648	0.358
NCI-H1944	0.427
